Assay results from the NIST ThermoML archive (doi:10.1021/je049909d).
Numbers after ± are expanded uncertainties.

Experiments:
[1] = refractive index (Na D-line) (dimensionless); conditions: 298.15 K; 101.33 kPa; Liquid; Standard Abbe refractometry
[2] = Liquid; for mass density / speed of sound: 298.15 K, 101.33 kPa; for speed of sound: Sing-around technique in a fixed-path interferometer
[3] = refractive index (Na D-line) (dimensionless); xn = mol fraction of the nth substance listed; conditions: 298.15 K, 101.3 kPa, Liquid, Standard Abbe refractometry
[4] = xn = mol fraction of the nth substance listed; conditions: 298.15 K, 101.3 kPa, Liquid; for speed of sound: Sing-around technique in a fixed-path interferometer

CO [methanol]
Conditions	mass density [kg/m3]	refractive index	speed of sound [m/s]
[1]	–	1.32634 ± 0.00072	–
[2]	786.56 ± 0.31	–	1101.8 ± 0.9

Conditions	vapor or sublimation pressure [kPa]
[2], 337.9 K	101.3 ± 1

C=COC(C)=O [vinyl acetate]
Conditions	mass density [kg/m3]	refractive index	speed of sound [m/s]
[1]	–	1.39253 ± 0.00073	–
[2]	925.59 ± 0.25	–	1115.6 ± 1

Conditions	vapor or sublimation pressure [kPa]
[2], 346.1 K	101.3 ± 1

C=COC(=O)CC [vinyl propanoate]
Conditions	mass density [kg/m3]	refractive index	speed of sound [m/s]
[1]	–	1.40153 ± 0.00073	–
[2]	909.69 ± 0.26	–	1133.9 ± 1

[2], Ebulliometric method (Recirculating still)
Conditions	vapor or sublimation pressure [kPa]
320.7 K	17.5 ± 0.2
325.3 K	21.5 ± 0.2
329.4 K	25.5 ± 0.2
333 K	29.5 ± 0.3
336.3 K	33.5 ± 0.3
339.3 K	37.5 ± 0.3
341.9 K	41.5 ± 0.3
344.4 K	45.5 ± 0.3
346.8 K	49.5 ± 0.4
348.9 K	53.5 ± 0.4
350.9 K	57.5 ± 0.4
352.8 K	61.5 ± 0.4
354.7 K	65.5 ± 0.5
356.3 K	69.5 ± 0.5
358 K	73.5 ± 0.5
359.6 K	77.5 ± 0.5
361.1 K	81.5 ± 0.5
362.6 K	85.5 ± 0.6
364 K	89.5 ± 0.6
365.4 K	93.5 ± 0.6
366.7 K	97.5 ± 0.6
368 K	101.3 ± 1
368.1 K	101.3 ± 1

C=COC(=O)CC [vinyl propanoate] + C=COC(C)=O
Conditions	mass density, [4] [kg/m3]	refractive index, [3]	speed of sound, [4] [m/s]
x2 = 0.05	910.31 ± 0.25	1.40114 ± 0.00073	1132.8 ± 1
x2 = 0.102	911.01 ± 0.25	1.4007 ± 0.00073	1131.8 ± 1
x2 = 0.167	911.87 ± 0.25	1.40017 ± 0.00073	1130.5 ± 1
x2 = 0.207	912.4 ± 0.25	1.39986 ± 0.00073	1129.7 ± 1
x2 = 0.264	913.2 ± 0.25	1.39937 ± 0.00073	1128.6 ± 1
x2 = 0.297	913.66 ± 0.25	1.39906 ± 0.00073	1128 ± 1
x2 = 0.354	914.5 ± 0.25	1.3985 ± 0.00073	1126.9 ± 1
x2 = 0.403	915.25 ± 0.25	1.39817 ± 0.00073	1126 ± 1
x2 = 0.466	916.22 ± 0.25	1.39762 ± 0.00073	1124.9 ± 1
x2 = 0.504	916.8 ± 0.25	1.3973 ± 0.00073	1124.2 ± 1
x2 = 0.545	917.48 ± 0.25	1.3969 ± 0.00073	1123.4 ± 1
x2 = 0.601	918.39 ± 0.25	1.3964 ± 0.00073	1122.4 ± 1
x2 = 0.65	919.18 ± 0.25	1.39591 ± 0.00073	1121.6 ± 1
x2 = 0.696	919.96 ± 0.25	1.39554 ± 0.00073	1120.8 ± 1
x2 = 0.753	920.95 ± 0.25	1.39493 ± 0.00073	1119.8 ± 1
x2 = 0.8	921.79 ± 0.25	1.39456 ± 0.00073	1119 ± 1
x2 = 0.839	922.51 ± 0.25	1.3941 ± 0.00073	1118.3 ± 1
x2 = 0.901	923.67 ± 0.25	1.39358 ± 0.00073	1117.2 ± 1
x2 = 0.955	924.72 ± 0.25	1.39295 ± 0.00073	1116.3 ± 1

C=COC(=O)CC [vinyl propanoate] + CO
Conditions	mass density, [4] [kg/m3]	refractive index, [3]	speed of sound, [4] [m/s]
x2 = 0.05	907.45 ± 0.25	1.40022 ± 0.00073	1132.9 ± 1
x2 = 0.101	905 ± 0.25	1.39881 ± 0.00073	1131.7 ± 1
x2 = 0.168	901.52 ± 0.25	1.3968 ± 0.00072	1130.2 ± 1
x2 = 0.198	899.81 ± 0.25	1.39573 ± 0.00072	1129.5 ± 1
x2 = 0.242	897.25 ± 0.25	1.39416 ± 0.00072	1128.4 ± 1
x2 = 0.311	892.66 ± 0.25	1.39141 ± 0.00072	1126.7 ± 1
x2 = 0.337	890.92 ± 0.25	1.39039 ± 0.00072	1126 ± 1
x2 = 0.39	886.94 ± 0.25	1.38789 ± 0.00072	1124.6 ± 1
x2 = 0.452	881.8 ± 0.25	1.38474 ± 0.00072	1122.8 ± 1
x2 = 0.526	874.78 ± 0.25	1.38044 ± 0.00072	1120.5 ± 1
x2 = 0.547	872.66 ± 0.25	1.37911 ± 0.00072	1119.8 ± 1
x2 = 0.597	867.2 ± 0.26	1.37583 ± 0.00072	1118 ± 1
x2 = 0.657	859.7 ± 0.26	1.37115 ± 0.00072	1115.9 ± 0.9
x2 = 0.708	852.65 ± 0.26	1.36685 ± 0.00072	1114.1 ± 0.9
x2 = 0.748	846.29 ± 0.27	1.36283 ± 0.00072	1112.6 ± 0.9
x2 = 0.8	837.26 ± 0.27	1.35725 ± 0.00072	1110.7 ± 0.9
x2 = 0.85	827.36 ± 0.28	1.3512 ± 0.00072	1108.7 ± 0.9
x2 = 0.899	816.21 ± 0.28	1.34444 ± 0.00072	1106.5 ± 0.9
x2 = 0.949	803.01 ± 0.29	1.33649 ± 0.00072	1104.9 ± 0.9
